Series [1] concerns small intestinal organoids in mice. As to the kind of experiment: Comparative experiment on the protective effects of PD332991, CHIR99021 and ISX on intestinal organoids. The note with it: then 4 days of culture, FIG. 13. From the text:
(§1) 1. Isolation of Crypts and Culture of Organoids
In this example, PD0332991 and CHIR99021 were used as reference compounds to evaluate the protective effect of the compounds of the present application on intestinal organoids.
After treatment, all compound treatments were terminated, and the organoids were washed 3 times with PBS, then culturing in fresh medium.

For series [2] the test system is unchanged. In words: Protection of ISX on injury of mouse small intestinal organoids caused by etoposide, bright field and live cells/dead cells double staining. The class given is cell-based. The note with it: then 4 days of culture.
Text: as §1

Series [3] has as its system human colon organoids. In words: Protection of ISX on human colon organoids, bright field and live cells/dead cells double staining. The note with it: 5-FU 20 uM alone.
Text: Calcein-AM/PI Live Cells/Dead Cells Double Staining Assay
Calcein-AM can permeate the cell membrane, and the esterase in living cells can remove its AM group to produce calcein and emit fluorescence. PI (propidium iodide) cannot pass through the intact cell membrane, and only after the cell membrane is damaged and the permeability changes, PI can enter the cell to combine with DNA and emit fluorescence. Therefore, Calcein-AM/PI can be a label for distinguishing the live or dead cells.
Colon tissues were isolated from normal human tissue to perform organoid culture, after the culture was stable, performing subculture to continue the culture for 3-5 days. The culture was dividing into 4 groups: a control group of adding DMSO alone (DMSO group); a group of adding chemotherapy drug 5-fluorouracil (5-FU, 20 uM) alone (5-FU group); a group of adding ISX (10 uM) alone (ISX group); and a group of adding 5-FU (50 uM) and ISX (25 uM) simultaneously (5-FU+ISX group).
The signal generated by PI in the fluorescence image represents dead cells, and the signal generated by Calcein-AM represents living cells.
Series [4] has as its system small intestinal organoids in mice. In words: Protection of ISX on injury of mouse small intestinal organoids caused by 5-FU, bright field and live cells/dead cells double staining. The class given is cell-based. The note with it: then 4 days of culture.
Text: as §1

The test system is the same in series [5]. In words: Protection of ISX on injury of mouse small intestinal organoids caused by 5-FU, immunofluorescence staining (cleaved caspase-3). The note with it: 5-FU 50 uM alone, 4 hours of treatment; FIG. 1.
Text: as §1
(§2) 3. Immunofluorescence of Organoids

For series [6], the system named is intestinal tract of mice. As to the kind of experiment: Protective effect of ISX on the intestinal tract of mice, TUNEL assay. The class given is in vivo. The note with it: etoposide 20 mg/kg intraperitoneally, ISX 20 mg/kg orally. How it is done: 6-8 week-old wild-type B6 mice were randomly divided into two groups. One group was intraperitoneally injected with chemotherapeutic drug etoposide (20 mg/kg), and then orally administered a cosolvent (5% DMSO+0.5% Tween 80+0.5% CMC-Na) (5 mL/kg); another group was intraperitoneally injected with chemotherapeutic drug etoposide (20 mg/kg), and then orally administered ISX dissolved in a cosolvent (20 mg/kg). The mice were sacrificed 3 hours later, and the intestinal tissues were fixed, followed by TUNEL staining assay.

The test system of series [7] is small intestinal organoids in mice. As to the kind of experiment: Protection of ISX on injury of mouse small intestinal organoids caused by etoposide, Western blotting. The class given is cell-based. The note with it: etoposide 50 uM + ISX 25 uM, 4 hours of treatment; FIG. 5. On the procedure: as §1
5. Western Blotting Assay
After 4 hours of treatment, 4 groups of samples were collected for Western blotting assay.
On the technique in general: Immunoblotting shows a protein as a band on a membrane.

Series [8] shares this test system. As to the kind of experiment: Protection of ISX on injury of mouse small intestinal organoids caused by etoposide, immunofluorescence staining. The class given is cell-based. The conditions noted are these: etoposide 50 uM + ISX 25 uM, 4 hours of treatment; FIG. 4.
Text: as §1, §2

The mark [9] stands for this setting: 5-FU 50 uM + ISX 25 uM, 8 hours of treatment, FIG. 2.
Setting [10] is: etoposide 50 uM + ISX 25 uM, 8 hours of treatment, FIG. 6.

Regarding `CC(=O)c1c(C)c2cnc(Nc3ccc(N4CCNCC4)cn3)nc2n(C2CCCC2)c1=O` [PD332991], the “protection of small intestinal organoids against 5-FU (live cells/dead cells double staining)” value in series [1] (5-FU 25 uM + PD0332991 100 nM) is “cannot protect small intestinal organoids”.

As for `Cc1c[nH]c(-c2cnc(NCCNc3ccc(C#N)cn3)nc2-c2ccc(Cl)cc2Cl)n1` [CHIR99021], in series [1] (5-FU 25 uM + CHIR99021 10 uM), the “protection of small intestinal organoids against 5-FU (live cells/dead cells double staining)” value is “cannot protect small intestinal organoids”.

On to `COc1cc([C@@H]2c3cc4c(cc3[C@@H](O[C@@H]3O[C@@H]5CO[C@@H](C)O[C@H]5[C@H](O)[C@H]3O)[C@H]3COC(=O)[C@H]23)OCO4)cc(OC)c1O` [Eto, etoposide, reference compound], for which the “biomass (bright field), Eto group compared with DMSO group” value in series [2] (etoposide 50 uM alone, 8 hours of treatment, FIG. 6) is “significantly reduced”.

Regarding `O=c1[nH]cc(F)c(=O)[nH]1` [5-FU, 5-fluorouracil], in series [3] (48 hours of treatment, p<0.01, FIGS. 8-9), the “number of crypt structures, 5-FU group vs DMSO group” value is “significantly reduced”. In addition, the “dead cells (PI), 5-FU group compared with DMSO group” value in series [3] (culture until day 5, FIG. 10) is “increased significantly”. Further, the “biomass (bright field), 5-FU group compared with DMSO group” value in series [4] (5-FU 50 uM alone, 8 hours of treatment, FIG. 2) is recorded as “significantly reduced”. Besides, the “dead cells (cleaved caspase-3 signal), 5-FU group vs DMSO group” value in series [5] is reported as “significantly higher”.

For `O=C(NC1CC1)c1cc(-c2cccs2)on1` [ISX], the “number of TUNEL signals in each crypt, ISX group vs cosolvent group” value in series [6] (3 hours, p<0.01, FIG. 12) is listed as “significant difference”. Moreover, the “TUNEL signal, orally administered ISX group vs cosolvent group” value in series [6] (sacrificed 3 hours later, FIG. 11) is “significantly lower”. Also, in series [7], the “cell death caused by etoposide (Western blotting)” value is “significantly reduce the cell death”. In series [4] (setting [9]), the “biomass (bright field), 5-FU+ISX group compared with the 5-FU group” value is on record as “significantly increased” and the “number of living cells (Calcein-AM), 5-FU+ISX group vs 5-FU group” value is reported as “significantly more”. Besides, the “number of surviving crypt structures in each organoid, 5-FU+ISX group vs 5-FU group” value in series [4] (5-FU 50 uM + ISX 25 uM, 8 hours, p<0.01, FIG. 3) is on record as “significant difference”. Besides, in series [2] (setting [10]), the “biomass (bright field), Eto+ISX group compared with the Eto group” value is “significantly increased” and the “number of living cells (Calcein-AM), Eto+ISX group vs Eto group” value is listed as “significantly more”. In addition, the “number of surviving crypt structures in each organoid, Eto+ISX group vs Eto group” value in series [2] (etoposide 50 uM + ISX 25 uM, 8 hours, p<0.01, FIG. 7) is “significant difference”. Also, the “cell death (cleaved caspase-3 signal) caused by etoposide” value in series [8] is listed as “significantly reduce the cell death”.
